Paper PMC8962522, “Direct interaction of TrkA/CD44v3 is essential for NGF-promoted aggressiveness of breast cancer cells” (Journal of Experimental & Clinical Cancer Research : CR, 2022)

Columns and labels:
[1] = system: CD44v3 (CD44v3-His, whole cell extracts of COS-7 cells expressing CD44v3); experiment: MST binding of NGF, TrkA or FGF to CD44v3; conditions: whole cell extracts of COS-7 expressing CD44v3, NGF alone, TrkA alone or FGF control
Procedure: (§1) MST was conducted using an NT.115 A Pico MST instrument (Nano Temper Technologies GmbH) equipped with red and blue filter sets. The TrkA-His tagged extracellular domain protein (Ala 34-Gly423) (9966-TK-050; R&D Systems, United Kingdom), diluted to 200 nM in PBS-T buffer (supplied by the vendor), was labeled using a Monolith His-Tag Labeling Kit with RED-Tris-NTA (Nano Temper). The RED-Tris-NTA dye was diluted in PBS-T to 100 nM. The mix was incubated at RT in the dark for 30 min. Next, an extract expressing CD44v3-labeled protein (CD44v3-His) and ligand and/or TrkA was mixed at a 1:1 ratio and incubated at RT in the dark for 15 min. For the binding check, peptides and TrkA-His were used. Capillaries were filled individually and loaded into the instrument. The data were acquired using high MST power and 100% LED. The data were analyzed using MO Control Software (Nano Temper).
(§2) Fig. 1 The C-terminal region of CD44 variant 3 binds to TrkA. A Schematic representation of the CD44 gene and protein structure. Alternative splicing leads to the expression of CD44 variants, thus the insertion of exon 8 leads to the expression of a CD44 protein containing variant 3 (CD44v3) and the insertion of exon 11 leads to the expression of a CD44 containing variant 6 (CD44v6) (B) TrkA/CD44v3 complex formation in COS-7 cells expressing TrkA and CD44v3 was detected by the proximity ligation assay (PLA), which was performed 0, 5 and 30 min after the initiation of NGF (100 ng/ml) treatment. The images represent signals detected by PLA. Quantification of the red spots was performed by ImageJ software (30 randomly chosen fields per condition of three different experiments). Statistical analyses were performed using one-way ANOVA followed by Bonferroni’s posttest. Error bars represent the standard error of the mean (S.E.M.); *** p < 0.001. ns, nonsignificant. C NGF and/or TrkA binding to CD44v3 was measured by microscale thermophoresis (MST). MST experiments were performed on whole cell extracts of COS-7 cells expressing CD44v3. […]

[2] = system: TrkA-His tagged extracellular domain protein (Ala 34-Gly423); experiment: MST binding of CD44v3 mimetic peptides to TrkA; conditions: TrkA-His 200 nM labelled with RED-Tris-NTA, PBS-T
Procedure: as §1
Fig. 2 The C-terminal region of CD44v3 and the His112 residue of TrkA are involved in the CD44v3/TrkA interaction. TrkA/CD44v3 complex association was detected by the proximity ligation assay (PLA) in wild-type TrkA- or TrkA_H112A- and CD44v3-expressing COS-7 cells. Proximity ligation assays were performed after 0, 5 and 30 min of NGF treatment (100 ng/ml). Representative images of signals detected by PLA (A) and their quantification (B). Sequence of CD44 exon variant 3 and deletion mutant Δ3 or Δ4 (C). TrkA/CD44v3 complex association was detected by PLA in wild-type TrkA and CD44v3 wild type or CD44v3 deleted mutant Δ3 or Δ4 expressing COS-7 (D, E). Sequence of CD44v3 mimetic peptides (F) and structure (G). TrkA binding to CD44v3 mimetic peptides by microscale thermophoresis (H) and effects of CD44v3 mimetic peptides 3 (RDRHLSFSGSG) and 4 ([…]) on TrkA/CD44v3 complex formation (I, J). Quantification of PLA was performed using ImageJ software (30 fields per condition of three different experiments). Statistical analyses were performed using one-way ANOVA followed by Bonferroni’s posttest.
To block the TrkA-CD44v3 association, 4 mimetic peptides of CD44v3 were designed corresponding to zone 1 [(K) STSSNTISAG], zone 2 (WEPNEENEDE), zone 3 (RDRHLSFSGSG) and zone 4 (IDDDEDFISST) (Fig. 2F & G). The binding capacities of the CD44v3 mimetic peptides to TrkA were then measured by MST (Fig. 2H). […] To confirm mimetic peptide 4 binding, we assessed its ability to bind TrkA using nanoscale differential scanning fluorimetry (nanoDSF; Supplementary Fig. 6A & B).

[3] = system: TrkA/CD44v3 complex in COS-7 cells expressing TrkA and CD44v3; experiment: PLA TrkA/CD44v3 complex formation in COS-7 cells; format: cell-based, African green monkey (COS-7 cells); conditions: COS-7 expressing TrkA and CD44v3, NGF 100 ng/ml, 0, 5 and 30 min, 30 fields per condition, three experiments
Procedure: (§3) Cells (10,000 cells per well) were grown on acid-washed eight-well glass slides (Thermo Scientific) in the appropriate medium supplemented with 10% FBS for 24 h. After NGF treatment, paraformaldehyde (PAF)-fixed cells were incubated with 4% bovine serum albumin (BSA) or 5% FBS (for 1 h at 20 °C), followed by overnight incubation with primary antibodies (rabbit anti-TrkA or rabbit anti-IgG + mouse anti-pan-CD44; mouse anti-CD44v3; mouse anti-CD44v6; mouse anti-IgG2a; mouse anti-IgG2b; or mouse anti-IgG1). PLA was performed following the manufacturer’s instructions in the assay kit (Duolink PLA; Sigma–Aldrich). To obtain the correct representation of the PLA signal for each condition, 30 fields per condition were observed using a fluorescence microscope (Eclipse TiU; Nikon, Japan). The PLA signals (red dots) were automatically quantified using ImageJ software (with an in-house-developed plug-in). After PLA, statistical analyses were performed using GraphPad Prism software to determine the mean dot intensity in the cells.
as §2
Fig. 2 The C-terminal region of CD44v3 and the His112 residue of TrkA are involved in the CD44v3/TrkA interaction. TrkA/CD44v3 complex association was detected by the proximity ligation assay (PLA) in wild-type TrkA- or TrkA_H112A- and CD44v3-expressing COS-7 cells. […] Representative images of signals detected by PLA (A) and their quantification (B). […] TrkA/CD44v3 complex association was detected by PLA in wild-type TrkA and CD44v3 wild type or CD44v3 deleted mutant Δ3 or Δ4 expressing COS-7 (D, E). […] Quantification of PLA was performed using ImageJ software (30 fields per condition of three different experiments). […]

[4] = system: TrkA/CD44v3 complex in MDA-MB-231 cells; experiment: PLA TrkA/CD44v3 complex formation in MDA-MB-231 cells; format: cell-based; conditions: NGF 100 ng/ml; 30 fields per condition, three experiments
Procedure: as §3
Fig. 3 CD44v3 mimetic peptide 4 blocks the TrkA-CD44 association in MDA-MB-231 breast cancer cells. TrkA/CD44v3 (A) and TrkA/CD44v6 (B) complex associations were detected by the proximity ligation assay (PLA) in MDA-MB-231 breast cancer cells. Effects of a scramble peptide (SP) (C), CD44v3 mimetic peptide 3 (P3) and 4 (P4) (D) on TrkA/CD44v3 complex formation induced by NGF. Quantification of the PLA results was performed by ImageJ software (30 randomly chosen fields per condition of three different experiments). Statistical analyses were performed using one-way ANOVA followed by Bonferroni’s posttest. The error bars represent the standard error of the mean (S.E.M.); * p < 0.05, ** p < 0.01, *** p < 0.001; ns, not significant

| Substance | binding to CD44v3 (in words) [1] | binding to TrkA by MST (in words) [2] | other results |
| --- | --- | --- | --- |
| FGF-1: fibroblast growth factor, positive control for CD44v3 binding | In contrast to FGF-1 (Supplementary Fig. 4), NGF did not bind to CD44v3 |  |  |
| FGF-2: FGF-2 (control), binding to CD44v3 | binding to CD44v3 but not to NGF was detected |  |  |
| KSTSSNTISAG [Peptide 1, CD44v3 mimetic peptide corresponding to zone 1 [(K) […]]] |  | neither peptide 1 ([…]) nor peptide 2 ([…]) could bind TrkA |  |
| RDRHLSFSGSG [Peptide 3, CD44v3 mimetic peptide corresponding to zone 3 (…)] |  |  | effect on TrkA/CD44v3 complex formation (PLA) in COS-7 cells [3]: did not inhibit TrkA/CD44v3 complex formation; effect on TrkA/CD44v3 complex formation (PLA) in COS-7 cells ([3]; listed as P3): did not abolish complex formation; effect on TrkA/CD44v3 complex formation (PLA) in MDA-MB-231 cells [4]: neither a scramble peptide (Fig. 3C) nor mimetic peptide P3 (Fig. 3D) inhibited TrkA/CD44v3 complex formation following NGF treatment; binding to TrkA by MST (in words) ([2]; listed as P3): also bound TrkA |
| WEPNEENEDE [Peptide 2, CD44v3 mimetic peptide corresponding to zone 2 (…)] |  | neither peptide 1 (KSTSSNTISAG) nor peptide 2 (WEPNEENEDE) could bind TrkA |  |
